# Test results published in PubChem BioAssay (NCI).
#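 These data come from cells grown in 96-well plates and exposed to compound for 48 hours at five concentrations. GI50 marks 50% less growth. At the TGI there is no net growth.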
# Tests used:
# Assay in all cases: DTP human tumour cell line panel, 48 h
# SF-295 CNS = tested on: SF-295 CNS
# UACC-62 melanoma = tested on: UACC-62 melanoma
# SF-268 CNS = tested on: SF-268 CNS
# HCT-116 colon = tested on: HCT-116 colon
# UACC-257 melanoma = tested on: UACC-257 melanoma
# A498 renal = tested on: A498 renal
# HS 578T breast = tested on: HS 578T breast
# 786-0 renal = tested on: 786-0 renal
# OVCAR-4 ovarian = tested on: OVCAR-4 ovarian
# HOP-62 NSCLC = tested on: HOP-62 NSCLC
# U251 CNS = tested on: U251 CNS
# HCC-2998 colon = tested on: HCC-2998 colon
# CAKI-1 renal = tested on: CAKI-1 renal
# MDA-MB-468 breast = tested on: MDA-MB-468 breast
# CCRF-CEM leukemia = tested on: CCRF-CEM leukemia
# HT29 colon = tested on: HT29 colon
# RPMI-8226 leukemia = tested on: RPMI-8226 leukemia
# MCF7 breast = tested on: MCF7 breast
# MALME-3M melanoma = tested on: MALME-3M melanoma
# KM12 colon = tested on: KM12 colon
# NCI-H522 lung = tested on: NCI-H522 lung
# OVCAR-5 ovarian = tested on: OVCAR-5 ovarian
# SK-MEL-2 melanoma = tested on: SK-MEL-2 melanoma
# K-562 leukemia = tested on: K-562 leukemia
# RXF 393 renal = tested on: RXF 393 renal
# SN12C renal = tested on: SN12C renal
# A549 NSCLC = tested on: A549 NSCLC
# HL-60(TB) leukemia = tested on: HL-60(TB) leukemia
# SK-MEL-5 melanoma = tested on: SK-MEL-5 melanoma
# SNB-19 CNS = tested on: SNB-19 CNS
# HCT-15 colon = tested on: HCT-15 colon
# SR leukemia = tested on: SR leukemia
# SNB-75 CNS = tested on: SNB-75 CNS
# M14 melanoma = tested on: M14 melanoma
# IGROV1 ovarian = tested on: IGROV1 ovarian
# MDA-MB-231 breast = tested on: MDA-MB-231 breast
# HOP-92 NSCLC = tested on: HOP-92 NSCLC
# EKVX NSCLC = tested on: EKVX NSCLC
# NCI-H23 lung = tested on: NCI-H23 lung
# SW-620 colon = tested on: SW-620 colon
# SK-OV-3 ovarian = tested on: SK-OV-3 ovarian
# ACHN renal = tested on: ACHN renal
# PC-3 prostate = tested on: PC-3 prostate
# COLO 205 colon = tested on: COLO 205 colon
# BT-549 breast = tested on: BT-549 breast
# OVCAR-8 ovarian = tested on: OVCAR-8 ovarian
# OVCAR-3 ovarian = tested on: OVCAR-3 ovarian
# NCI-H226 lung = tested on: NCI-H226 lung
# MOLT-4 leukemia = tested on: MOLT-4 leukemia
# UO-31 renal = tested on: UO-31 renal
# DU-145 prostate = tested on: DU-145 prostate
# MDA-MB-435 = tested on: MDA-MB-435
# TK-10 renal = tested on: TK-10 renal
# T-47D breast = tested on: T-47D breast
# LOX IMVI melanoma = tested on: LOX IMVI melanoma
# SF-539 CNS = tested on: SF-539 CNS
# NCI-H460 lung = tested on: NCI-H460 lung
# SK-MEL-28 melanoma = tested on: SK-MEL-28 melanoma
smiles,measurement,setting,value
O=C(O)c1ccc(-c2ccc(/C=N/NC(=O)c3[nH]c4ccc(Br)cc4c3-c3ccccc3)s2)cc1,GI50,SF-295 CNS,7.34 µM
same,TGI,SF-295 CNS,26.2 µM
same,GI50,UACC-62 melanoma,11.7 µM
same,TGI,UACC-62 melanoma,24.6 µM
same,GI50,SF-268 CNS,13.5 µM
same,TGI,SF-268 CNS,46 µM
same,GI50,HCT-116 colon,3.7 µM
same,TGI,HCT-116 colon,12.6 µM
same,GI50,UACC-257 melanoma,18.7 µM
same,TGI,UACC-257 melanoma,50.2 µM
same,GI50,A498 renal,20.7 µM
same,TGI,A498 renal,52 µM
same,GI50,HS 578T breast,6.67 µM
same,TGI,HS 578T breast,38.9 µM
same,GI50,786-0 renal,3.13 µM
same,TGI,786-0 renal,11 µM
same,GI50,OVCAR-4 ovarian,7.68 µM
same,TGI,OVCAR-4 ovarian,44.9 µM
same,GI50,HOP-62 NSCLC,12.3 µM
same,TGI,HOP-62 NSCLC,30.4 µM
same,GI50,U251 CNS,5.98 µM
same,TGI,U251 CNS,22 µM
same,GI50,HCC-2998 colon,11.8 µM
same,TGI,HCC-2998 colon,27.3 µM
same,GI50,CAKI-1 renal,21.1 µM
same,TGI,CAKI-1 renal,64.1 µM
same,GI50,MDA-MB-468 breast,19.1 µM
same,TGI,MDA-MB-468 breast,59.7 µM
same,GI50,CCRF-CEM leukemia,4.44 µM
same,TGI,CCRF-CEM leukemia,26.9 µM
same,GI50,HT29 colon,12.7 µM
same,TGI,HT29 colon,30.4 µM
same,GI50,RPMI-8226 leukemia,6.05 µM
same,TGI,RPMI-8226 leukemia,51.3 µM
same,GI50,MCF7 breast,18.1 µM
same,TGI,MCF7 breast,65.1 µM
same,GI50,MALME-3M melanoma,16.3 µM
same,TGI,MALME-3M melanoma,38.2 µM
same,GI50,KM12 colon,15.3 µM
same,TGI,KM12 colon,39.7 µM
same,GI50,NCI-H522 lung,15.9 µM
same,TGI,NCI-H522 lung,33.4 µM
same,GI50,OVCAR-5 ovarian,17.1 µM
same,TGI,OVCAR-5 ovarian,31.5 µM
same,GI50,SK-MEL-2 melanoma,15.6 µM
same,TGI,SK-MEL-2 melanoma,35.7 µM
same,GI50,K-562 leukemia,6.15 µM
same,TGI,K-562 leukemia,37.1 µM
same,GI50,RXF 393 renal,13.9 µM
same,TGI,RXF 393 renal,57.7 µM
same,GI50,SN12C renal,9.73 µM
same,TGI,SN12C renal,29.7 µM
same,GI50,A549 NSCLC,13.5 µM
same,TGI,A549 NSCLC,44.6 µM
same,GI50,HL-60(TB) leukemia,4.31 µM
same,TGI,HL-60(TB) leukemia,25 µM
same,GI50,SK-MEL-5 melanoma,12 µM
same,TGI,SK-MEL-5 melanoma,27 µM
same,GI50,SNB-19 CNS,6.76 µM
same,TGI,SNB-19 CNS,20.5 µM
same,GI50,HCT-15 colon,5.27 µM
same,TGI,HCT-15 colon,20 µM
same,GI50,SR leukemia,13.7 µM
same,TGI,SR leukemia,58 µM
same,GI50,SNB-75 CNS,11.2 µM
same,TGI,SNB-75 CNS,44.8 µM
same,GI50,M14 melanoma,6.32 µM
same,TGI,M14 melanoma,30.3 µM
same,GI50,IGROV1 ovarian,7.85 µM
same,TGI,IGROV1 ovarian,23.1 µM
same,GI50,MDA-MB-231 breast,20.6 µM
same,TGI,MDA-MB-231 breast,47.2 µM
same,GI50,HOP-92 NSCLC,4.41 µM
same,TGI,HOP-92 NSCLC,22 µM
same,GI50,EKVX NSCLC,14.4 µM
same,TGI,EKVX NSCLC,39.1 µM
same,GI50,NCI-H23 lung,21.7 µM
same,TGI,NCI-H23 lung,54.5 µM
same,GI50,SW-620 colon,13.8 µM
same,TGI,SW-620 colon,34.1 µM
same,GI50,SK-OV-3 ovarian,20 µM
same,TGI,SK-OV-3 ovarian,41.2 µM
same,GI50,ACHN renal,11.4 µM
same,TGI,ACHN renal,55.7 µM
same,GI50,PC-3 prostate,4.79 µM
same,TGI,PC-3 prostate,37 µM
same,GI50,COLO 205 colon,16.1 µM
same,TGI,COLO 205 colon,33.9 µM
same,GI50,BT-549 breast,1.95 µM
same,TGI,BT-549 breast,5.83 µM
same,GI50,OVCAR-8 ovarian,15.9 µM
same,TGI,OVCAR-8 ovarian,66.9 µM
same,GI50,OVCAR-3 ovarian,13.7 µM
same,TGI,OVCAR-3 ovarian,35.8 µM
same,GI50,NCI-H226 lung,21 µM
same,TGI,NCI-H226 lung,75.5 µM
same,GI50,MOLT-4 leukemia,6.42 µM
same,TGI,MOLT-4 leukemia,34.2 µM
same,GI50,UO-31 renal,10.4 µM
same,TGI,UO-31 renal,33.9 µM
same,GI50,DU-145 prostate,24.9 µM
same,TGI,DU-145 prostate,> 100 µM
same,GI50,MDA-MB-435,6.81 µM
same,TGI,MDA-MB-435,28.2 µM
same,GI50,TK-10 renal,26.8 µM
same,TGI,TK-10 renal,> 100 µM
same,GI50,T-47D breast,13.9 µM
same,TGI,T-47D breast,59.5 µM
same,GI50,LOX IMVI melanoma,25.7 µM
same,TGI,LOX IMVI melanoma,> 100 µM
same,GI50,SF-539 CNS,6.79 µM
same,TGI,SF-539 CNS,22.2 µM
same,GI50,NCI-H460 lung,12.3 µM
same,TGI,NCI-H460 lung,31.5 µM
same,GI50,SK-MEL-28 melanoma,7.17 µM
same,TGI,SK-MEL-28 melanoma,21.6 µM
